Assay results: article PMC2634962, “Poisoning Pyridoxal 5-Phosphate-Dependent Enzymes: A New Strategy to Target the Malaria Parasite Plasmodium falciparum” (PLoS ONE, 2009)

Legend:
[1] = target: T1, PfPdxK (pyridoxine/pyridoxal kinase) (Plasmodium falciparum, UniProt C6KT01); assay: kinase assay with [γ-33P]-ATP, recombinant purified PfPdxK, specific activity; format: biochemical
T1 construct: gene PF3D7_0616000; recombinant, strep tag

[2] = target: T2, PfODC (bifunctional P. falciparum AdoMetDC/ODC) (Plasmodium falciparum, UniProt Q8IJ77); assay: […]CO2 release from […]-L-ornithine by recombinant PfODC/AdoMetDC with […] PLP; format: biochemical; conditions: read-out: Inhibition of PfODC activity IC50-value [μM] ^a)
T2 construct: gene PF3D7_1033100; recombinant bifunctional P. falciparum AdoMetDC/ODC, strep tag
T2 sequence (Q8IJ77 1-72): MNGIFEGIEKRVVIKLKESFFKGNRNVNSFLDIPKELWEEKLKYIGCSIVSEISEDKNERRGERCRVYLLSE
T2 sequence (Q8IJ77 73-1434): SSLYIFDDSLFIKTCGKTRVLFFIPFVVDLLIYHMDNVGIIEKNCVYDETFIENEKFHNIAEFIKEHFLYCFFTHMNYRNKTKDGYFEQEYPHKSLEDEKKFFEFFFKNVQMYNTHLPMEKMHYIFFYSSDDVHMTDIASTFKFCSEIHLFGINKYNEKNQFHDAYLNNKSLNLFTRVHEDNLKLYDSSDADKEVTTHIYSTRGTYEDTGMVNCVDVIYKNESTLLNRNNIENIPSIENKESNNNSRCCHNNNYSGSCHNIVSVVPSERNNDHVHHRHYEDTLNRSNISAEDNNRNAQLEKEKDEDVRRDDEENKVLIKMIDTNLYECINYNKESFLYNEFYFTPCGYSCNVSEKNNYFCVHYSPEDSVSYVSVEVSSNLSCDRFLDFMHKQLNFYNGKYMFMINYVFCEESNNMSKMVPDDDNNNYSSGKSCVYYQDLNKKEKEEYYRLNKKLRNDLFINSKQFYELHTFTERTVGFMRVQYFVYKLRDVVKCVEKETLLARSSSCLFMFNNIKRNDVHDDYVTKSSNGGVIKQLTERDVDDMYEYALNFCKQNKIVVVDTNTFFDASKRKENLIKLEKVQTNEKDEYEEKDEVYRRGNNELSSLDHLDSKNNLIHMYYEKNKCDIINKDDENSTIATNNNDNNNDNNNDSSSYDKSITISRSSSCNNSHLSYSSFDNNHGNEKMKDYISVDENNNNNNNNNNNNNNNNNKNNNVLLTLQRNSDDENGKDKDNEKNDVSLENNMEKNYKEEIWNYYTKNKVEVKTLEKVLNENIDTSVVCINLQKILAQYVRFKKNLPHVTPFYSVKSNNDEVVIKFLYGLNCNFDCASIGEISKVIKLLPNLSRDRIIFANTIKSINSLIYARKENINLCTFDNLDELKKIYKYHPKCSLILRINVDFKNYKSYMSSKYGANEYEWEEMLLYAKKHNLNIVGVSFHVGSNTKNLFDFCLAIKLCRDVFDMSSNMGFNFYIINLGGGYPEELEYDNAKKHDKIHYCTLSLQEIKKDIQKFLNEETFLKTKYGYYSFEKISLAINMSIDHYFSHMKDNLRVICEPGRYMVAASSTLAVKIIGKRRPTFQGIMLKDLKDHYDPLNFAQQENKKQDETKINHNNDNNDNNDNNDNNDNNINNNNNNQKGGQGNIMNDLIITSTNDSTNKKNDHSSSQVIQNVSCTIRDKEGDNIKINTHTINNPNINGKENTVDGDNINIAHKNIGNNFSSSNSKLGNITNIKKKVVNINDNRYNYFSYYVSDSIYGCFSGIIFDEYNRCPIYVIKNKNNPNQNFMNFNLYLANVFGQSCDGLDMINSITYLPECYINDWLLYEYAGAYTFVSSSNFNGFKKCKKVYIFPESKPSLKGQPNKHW

T1 sequence (C6KT01 entry or part of it): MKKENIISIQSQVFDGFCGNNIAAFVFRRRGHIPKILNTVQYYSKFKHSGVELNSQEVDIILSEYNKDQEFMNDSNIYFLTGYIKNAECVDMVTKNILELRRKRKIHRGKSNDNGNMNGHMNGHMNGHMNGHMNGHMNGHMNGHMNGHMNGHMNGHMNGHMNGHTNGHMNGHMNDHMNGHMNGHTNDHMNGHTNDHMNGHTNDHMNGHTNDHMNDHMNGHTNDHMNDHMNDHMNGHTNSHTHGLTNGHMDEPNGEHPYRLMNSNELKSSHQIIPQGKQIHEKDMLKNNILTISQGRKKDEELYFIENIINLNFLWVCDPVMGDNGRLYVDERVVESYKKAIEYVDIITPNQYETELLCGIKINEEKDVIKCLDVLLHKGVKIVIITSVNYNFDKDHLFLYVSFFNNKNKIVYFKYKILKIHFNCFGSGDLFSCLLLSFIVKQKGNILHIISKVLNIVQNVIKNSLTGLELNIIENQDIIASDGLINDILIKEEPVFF

| SMILES | Specific activity of PfPdxK (nmol min^-1 mg^-1) ^a) [1] [nmol/min/mg] | IC50 [2] [µM] |
| --- | --- | --- |
| COC(=O)C(Cc1c[nH]cn1)NCc1c(CO)cnc(C)c1O (centres unmarked) [PHME] | 64 ± 4 | – |
| COC(=O)C(Cc1c[nH]cn1)NCc1c(COP(=O)(O)O)cnc(C)c1O (centres unmarked) [PPHME] | – | 58 ± 11 |
| COC(=O)C(Cc1c[nH]c2ccccc12)NCc1c(COP(=O)(O)O)cnc(C)c1O (centres unmarked) [PPT5] | – | 64 ± 13 |
| COC(=O)[C@@H]1Cc2c([nH]c3ccccc23)[C@H](c2c(CO)cnc(C)c2O)N1 [PT3] | 38 ± 4 | – |
| COC(=O)C(Cc1c[nH]c2ccccc12)NCc1c(CO)cnc(C)c1O (centres unmarked) [PT5] | 20 ± 2 | – |
